Where two headings read alike, the source gives them in different places.
Experiments:
[1] = molecular target: T1, OR2M3 (Homo sapiens, UniProt Q8NG83); experiment: hOR assay (GloSensor cAMP luciferase), dose-response; assay type: cell-based; conditions: OR2M3/pHEK plasmid
T1 construct: Lucy tag (N); expressed in transfected cells; host or cells: Flp-In T-REx-293 cells stably expressing RTP1S, Gαolf and Ric8-b
T1 sequence (Q8NG83 1-312): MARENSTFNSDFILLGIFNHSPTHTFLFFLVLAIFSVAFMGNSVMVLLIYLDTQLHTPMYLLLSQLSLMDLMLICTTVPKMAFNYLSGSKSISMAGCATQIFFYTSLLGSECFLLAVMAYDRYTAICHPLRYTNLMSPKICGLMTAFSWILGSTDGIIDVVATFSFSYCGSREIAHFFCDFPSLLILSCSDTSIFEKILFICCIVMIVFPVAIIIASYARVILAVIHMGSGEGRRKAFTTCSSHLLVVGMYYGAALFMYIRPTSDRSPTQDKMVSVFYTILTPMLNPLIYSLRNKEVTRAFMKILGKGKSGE
Experimental: (§1) Flp-In T-REx-293 cells stably expressing accessory proteins (RTP1S, Gαolf, and Ric8-b) were established using the Flp-In T-REx system. Accessory proteins-expressing cells were maintained in high-glucose Dulbecco’s modified Eagle medium (Sigma-Aldrich) containing 10% fetal bovine serum (Biowest) and 1% antibiotic–antimycotic (Nacalai tesque) at 37°C with 5% CO2.
(§2) The GloSensor™ Technology (Promega) was used for the luciferase assay of the hOR response. As the negative control, cells that were transfected by the pBApo-CMV neo vector and pHEK293 Ultra Expression Vector I were used as mock cells. hOR/pHEK and hOR/pBApo (50 ng/well) were transfected into the accessory proteins-expressing cell line (40000 cells/well) using Lipofectamine 2000 (Thermo Fisher Scientific) (400 nL/well) along with pGlosensor™-22F cAMP biosensor plasmid (Promega) (50 ng/well) in a 96-well plate. At 28 h posttransfection, the cells were washed with an assay buffer (140 mM NaCl, 10 mM HEPES, 5 mM KCl, 1 mM CaCl2・2H2O, 10 mM D-glucose, pH 7.5) and replaced with the assay buffer (50 μL/well) containing 2% GloSensor cAMP substrate and preincubated for 1 h at 25°C. Then, the assay buffer was added (130 μL/well). After 10 min of equilibration, the luminescence was measured (L0). Odorants diluted in 10% DMSO/assay buffer were treated (20 μL/well). After 9 min, the luminescence was measured (L9min). First, all the L9min values were subtracted by the L0 value (ΔL) and divided by the L0 value (ΔL/L0). The concentration range of the odorants was different for each odorant, but the minimum was 0.01 μM and the maximum was 3 mM. For all hORs, luciferase assays with hOR/pBApo and hOR/pHEK were conducted in the same 96-well plate each time, and luminescence was normalized to a maximum value of 100. Dose–response curve images were graphed using the Graph Pad Prism 9 software (Graph Pad Software).

[2] = molecular target: T2, OR1A1 (Homo sapiens, UniProt Q9P1Q5); experiment: as above; assay type: cell-based; conditions: for EC50: read-out: EC50 value; for top value of OR1A1 dose-response curve: luminescence normalized to a maximum value of 100
T2 construct: Lucy tag (N); FLAG (N); Rho tag (N); expressed in transfected cells; host or cells: Flp-In T-REx-293 cells stably expressing RTP1S, Gαolf and Ric8-b
T2 sequence (Q9P1Q5 1-309): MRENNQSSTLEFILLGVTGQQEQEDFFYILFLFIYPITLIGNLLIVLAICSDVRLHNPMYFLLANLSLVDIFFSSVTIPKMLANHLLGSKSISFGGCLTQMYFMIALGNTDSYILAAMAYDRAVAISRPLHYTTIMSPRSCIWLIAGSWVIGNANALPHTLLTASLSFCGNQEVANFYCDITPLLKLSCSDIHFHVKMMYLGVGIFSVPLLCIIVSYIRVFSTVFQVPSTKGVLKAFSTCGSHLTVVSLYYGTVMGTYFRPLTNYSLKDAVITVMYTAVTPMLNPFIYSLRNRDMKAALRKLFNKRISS
Experimental: as §1, §2

| EC50 [1] [nM] | response of HiBiT-tagged OR1A1 ([2]; OR1A1 with the HiBiT tag (S1 Fig)) | EC50 ([2]; OR1A1 with the TAR-Tat system (OR1A1/pHEK)) [nM] | EC50 ([2]; OR1A1 without the TAR-Tat system (OR1A1/pBApo)) [nM] | top value of OR1A1 dose-response curve ([2]; with the TAR-Tat system (OR1A1/pHEK)) | top value of OR1A1 dose-response curve ([2]; without the TAR-Tat system (OR1A1/pBApo)) | Structure (SMILES) |
| --- | --- | --- | --- | --- | --- | --- |
| 159 | – | – | – | – | – | CCC(S)C(C)CO (stereo not drawn) [3-mercapto-2-methyl-1-pentanol] |
| – | a dose-dependent response was detected | 905 | 4400 | 90.4 | 53.9 | C=C(C)[C@H]1CC=C(C)C(=O)C1 [(+)-carvone] |

Source: article PMC11198769, “Enhancement of transcription efficiency by TAR-Tat system increases the functional expression of human olfactory receptors” (PLOS ONE, 2024)
